Results reported in patent publication US11168080B2, “Dynamin-1-like protein inhibitors” (Mitobridge, Inc., priority 2017, dated 2021).

Target: Drp1 (Homo sapiens (Human), UniProt O00429)
Assay: Drp1 Activity Screen: colorimetric (malachite green) GTPase assay
Format: biochemical
Settings: 1 mM GTP, 20 min at 37° C.; for IC50: GTPase activity, 0.6 μM Drp1 preincubated with 0.1 mg/mL liposomes; for max % inh: max % inhibition of Drp1 GTPase activity, 0.6 μM Drp1, 0.1 mg/mL liposomes
Protocol: The GTPase activity of Drp1 was assayed using a colorimetric assay similar to as described previously by Leonard M. et al. “Robust colorimetric assays for dynamin's basal and stimulated GTPase activities.” Methods Enzymol. […] Briefly, for GTPase assays of purified Drp1 inhibitor samples, 0.6 μM Drp1 preincubated with 0.1 mg/mL liposomes (consisting of 80% soybean lipids/20% cardiolipin) and inhibitor was added to 1 mM GTP in a microtiter plate for 20 min at 37° C. in 4 mM MgCl2, 10 mM Hepes (pH 7.0), 100 mM KCl, 1 mM DTT. Reactions were stopped by diluting with 0.5 mM EDTA. Samples were then incubated with malachite green reagent (1 mM malachite green and 50 mM ammonium molybdate in 1 N HCl), and the absorbance at 650 nm was measured. The reaction rates, IC50 values, and max % inhibition were determined using Excel/GraphPad Prism software.

Chain of Drp1 (O00429 whole entry): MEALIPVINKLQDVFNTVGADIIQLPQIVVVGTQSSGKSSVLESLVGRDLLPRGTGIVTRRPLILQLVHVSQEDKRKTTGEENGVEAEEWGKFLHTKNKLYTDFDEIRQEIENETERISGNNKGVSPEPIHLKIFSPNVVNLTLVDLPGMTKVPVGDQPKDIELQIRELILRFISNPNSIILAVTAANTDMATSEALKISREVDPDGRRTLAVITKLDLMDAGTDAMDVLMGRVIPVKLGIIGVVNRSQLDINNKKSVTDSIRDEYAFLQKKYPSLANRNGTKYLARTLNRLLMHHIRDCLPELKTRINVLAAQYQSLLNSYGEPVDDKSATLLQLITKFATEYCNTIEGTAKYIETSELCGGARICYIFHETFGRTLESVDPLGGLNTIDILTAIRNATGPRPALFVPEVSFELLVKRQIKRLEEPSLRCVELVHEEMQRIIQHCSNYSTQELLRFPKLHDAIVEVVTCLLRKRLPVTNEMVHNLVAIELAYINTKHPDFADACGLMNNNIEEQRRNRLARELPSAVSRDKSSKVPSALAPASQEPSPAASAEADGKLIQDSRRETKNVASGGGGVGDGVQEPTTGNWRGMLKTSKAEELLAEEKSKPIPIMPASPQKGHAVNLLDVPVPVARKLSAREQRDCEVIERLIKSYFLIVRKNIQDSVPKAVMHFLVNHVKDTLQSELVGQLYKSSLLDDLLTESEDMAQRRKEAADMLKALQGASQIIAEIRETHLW

SMILES: Cc1cc(C(=O)NCc2ccc(C(=O)O)cc2)n(Cc2csc(N3CCCCC3)n2)c1 [Compound A-1, 4-((4-methyl-1-((2-(piperidin-1-yl)thiazol-4-yl)methyl)-1H-pyrrole-2-carboxamido)methyl)benzoic Acid]
- IC50: 6.4 µM

SMILES: Cc1cc(C(=O)NCc2ccccc2)n(Cc2csc(N3CCCCC3)n2)c1 [Compound A-3, N-benzyl-4-methyl-1-((2-(piperidin-1-yl)thiazol-4-yl)methyl)-1H-pyrrole-2-carboxamide]
- IC50: 4.8 µM
- max % inh: 70%

SMILES: CC(=O)NS(=O)(=O)c1ccc(NC(=O)c2cc(C)cn2Cc2csc(N3CCCCC3)n2)cc1 [Compound A-6, N-(4-(N-acetylsulfamoyl)phenyl)-4-methyl-1-((2-(piperidin-1-yl)thiazol-4-yl)methyl)-1H-pyrrole-2-carboxamide]
- IC50: 5 µM
- max % inh: 71%

SMILES: Cc1cc(C(=O)Nc2ccc(-c3nn[nH]n3)cc2)n(Cc2csc(N3CCCCC3)n2)c1 [Compound A-7, N-(4-(1H-tetrazol-5-yl)phenyl)-4-methyl-1-((2-(piperidin-1-yl)thiazol-4-yl)methyl)-1H-pyrrole-2-carboxamide]
- IC50: 0.91 µM

SMILES: Cc1cc(C(=O)Nc2ccc(S(N)(=O)=O)cc2)n(Cc2csc(N3CCCCC3)n2)c1 [Compound A-8, 4-methyl-1-((2-(piperidin-1-yl)thiazol-4-yl)methyl)-N-(4-sulfamoylphenyl)-1H-pyrrole-2-carboxamide]
- IC50: 2.5 µM

SMILES: CCN(CC)c1nc(Cn2cc(C)cc2C(=O)Nc2ccc(C(=O)O)cc2)cs1 [Compound A-9, 4-(1-((2-(diethylamino)thiazol-4-yl)methyl)-4-methyl-1H-pyrrole-2-carboxamido)benzoic Acid]
- IC50: 51 µM

SMILES: O=C(O)c1ccc(NC(=O)c2ccccc2Cc2csc(N3CCCCC3)n2)cc1 [Compound A-11, 4-(2-((2-(piperidin-1-yl)thiazol-4-yl)methyl)benzamido)benzoic Acid]
- IC50: > 100 µM

SMILES: Cc1cc(C(=O)Nc2ccc(C(=O)O)cc2)n(Cc2csc(N3CCOCC3)n2)c1 [Compound A-12, 4-(4-methyl-1-((2-morpholinothiazol-4-yl)methyl)-1H-pyrrole-2-carboxamido)benzoic Acid]
- IC50: 25 µM

SMILES: Cc1cc(C(=O)N[C@H]2CC[C@H](C(=O)O)CC2)n(Cc2csc(N3CCCCC3)n2)c1 [Compound A-13, trans-4-(4-methyl-1-((2-(piperidin-1-yl)thiazol-4-yl)methyl)-1H-pyrrole-2-carboxamido)cyclohexane-1-carboxylic Acid]
- IC50: 5.5 µM

SMILES: Cc1cc(C(=O)N[C@H]2CC[C@@H](C(=O)O)CC2)n(Cc2csc(N3CCCCC3)n2)c1 [Compound A-14, cis-4-(4-methyl-1-((2-(piperidin-1-yl)thiazol-4-yl)methyl)-1H-pyrrole-2-carboxamido)cyclohexane-1-carboxylic Acid]
- IC50: 39 µM

SMILES: Cc1cc(C(=O)Nc2ccccc2)n(Cc2csc(N3CCCCC3)n2)c1 [Compound A-15, 4-methyl-N-phenyl-1-((2-(piperidin-1-yl)thiazol-4-yl)methyl)-1H-pyrrole-2-carboxamide]
- IC50: 2.2 µM
- max % inh: 68%

SMILES: Cc1cc(C(=O)Nc2ccc(C(=O)O)cc2)n(Cc2cccc(N3CCCCC3)n2)c1 [Compound A-16, 4-(4-methyl-1-((6-(piperidin-1-yl)pyridin-2-yl)methyl)-1H-pyrrole-2-carboxamido)benzoic Acid]
- IC50: 1.7 µM

SMILES: Cc1cc(C(=O)Nc2ccc(C(=O)O)cc2)n(Cc2csc(-c3ccccc3)n2)c1 [Compound A-17, 4-(4-methyl-1-((2-phenylthiazol-4-yl)methyl)-1H-pyrrole-2-carboxamido)benzoic Acid]
- IC50: 3.8 µM

SMILES: Cc1cc(C(=O)Nc2ccc(C(=O)O)cc2)n(Cc2csc(N3CCCCCC3)n2)c1 [Compound A-18, 4-(1-((2-(azepan-1-yl)thiazol-4-yl)methyl)-4-methyl-1H-pyrrole-2-carboxamido)benzoic Acid]
- IC50: 3.4 µM

SMILES: Cc1cc(C(=O)Nc2ccc(C(=O)O)cc2)n(Cc2csc(N3CCCC(C)C3)n2)c1 (stereo not drawn) [Compound A-19, 4-(4-methyl-1-((2-(3-methylpiperidin-1-yl)thiazol-4-yl)methyl)-1H-pyrrole-2-carboxamido)benzoic Acid]
- IC50: 2.7 µM

SMILES: Cc1cc(C(=O)Nc2ccc(C(=O)O)cc2)n(Cc2csc(N3CCCCC3C)n2)c1 (stereo not drawn) [Compound A-20, 4-(4-methyl-1-((2-(2-methylpiperidin-1-yl)thiazol-4-yl)methyl)-1H-pyrrole-2-carboxamido)benzoic Acid]
- IC50: 3.9 µM

SMILES: Cc1cc(C(=O)Nc2ccc(C(=O)O)cc2)n(Cc2nc(N3CCCCC3)sc2C)c1 [Compound A-21, 4-(4-methyl-1-((5-methyl-2-(piperidin-1-yl)thiazol-4-yl)methyl)-1H-pyrrole-2-carboxamido)benzoic Acid]
- IC50: 11.9 µM

SMILES: CNC(=O)c1ccc(NC(=O)c2cc(C)cn2Cc2csc(N3CCCCC3)n2)cc1 [Compound A-22, 4-methyl-N-(4-(methylcarbamoyl)phenyl)-1-((2-(piperidin-1-yl)thiazol-4-yl)methyl)-1H-pyrrole-2-carboxamide]
- IC50: 1.8 µM

SMILES: Cc1cc(C(=O)Nc2ccc3ccccc3c2)n(Cc2csc(N3CCCCC3)n2)c1 [Compound A-23, 4-methyl-N-(naphthalen-2-yl)-1-((2-(piperidin-1-yl)thiazol-4-yl)methyl)-1H-pyrrole-2-carboxamide]
- IC50: 1.6 µM

SMILES: Cc1cc(C(=O)Nc2cc(F)c(O)c(F)c2)n(Cc2csc(N3CCCCC3)n2)c1 [Compound A-24, N-(3,5-difluoro-4-hydroxyphenyl)-4-methyl-1-((2-(piperidin-1-yl)thiazol-4-yl)methyl)-1H-pyrrole-2-carboxamide]
- IC50: 21.8 µM

SMILES: Cc1cc(C(=O)NC2CCCC2)n(Cc2csc(N3CCCCC3)n2)c1 [Compound A-25, N-cyclopentyl-4-methyl-1-((2-(piperidin-1-yl)thiazol-4-yl)methyl)-1H-pyrrole-2-carboxamide]
- IC50: 5.7 µM

SMILES: Cc1cc(C(=O)NC2CCCCC2)n(Cc2csc(N3CCCCC3)n2)c1 [Compound A-26, N-cyclohexyl-4-methyl-1-((2-(piperidin-1-yl)thiazol-4-yl)methyl)-1H-pyrrole-2-carboxamide]
- IC50: 1.7 µM

SMILES: Cc1cc(C(=O)NC2CCCOC2)n(Cc2csc(N3CCCCC3)n2)c1 (stereo not drawn) [Compound A-27, 4-methyl-1-((2-(piperidin-1-yl)thiazol-4-yl)methyl)-N-(tetrahydro-2H-pyran-3-yl)-1H-pyrrole-2-carboxamide]
- IC50: 9.6 µM

SMILES: Cc1cc(C(=O)N(C)c2ccccc2)n(Cc2csc(N3CCCCC3)n2)c1 [Compound A-28, N,4-dimethyl-N-phenyl-1-((2-(piperidin-1-yl)thiazol-4-yl)methyl)-1H-pyrrole-2-carboxamide]
- IC50: > 100 µM

SMILES: Cc1cc(C(=O)NC2CCOCC2)n(Cc2csc(N3CCCCC3)n2)c1 [Compound A-29, 4-methyl-1-((2-(piperidin-1-yl)thiazol-4-yl)methyl)-N-(tetrahydro-2H-pyran-4-yl)-1H-pyrrole-2-carboxamide]
- IC50: 14.4 µM

SMILES: Cc1cc(C(=O)Nc2ccccn2)n(Cc2csc(N3CCCCC3)n2)c1 [Compound A-30, 4-methyl-1-((2-(piperidin-1-yl)thiazol-4-yl)methyl)-N-(pyridin-2-yl)-1H-pyrrole-2-carboxamide]
- IC50: 8.7 µM

SMILES: Cc1cc(C(=O)Nc2cccnc2)n(Cc2csc(N3CCCCC3)n2)c1 [Compound A-31, 4-methyl-1-((2-(piperidin-1-yl)thiazol-4-yl)methyl)-N-(pyridin-3-yl)-1H-pyrrole-2-carboxamide]
- IC50: 7.6 µM
